Data as given in US5597835A, “Acyl CoA:cholesterol acyltransferase inhibitors” (Korea Institute of Science and Technology, priority 1993, dated 1997).
One block for each compound: values may come before it.

Assays:
[1] = target: T1, acyl CoA:cholesterol acyltransferase (ACAT) (Rattus norvegicus, UniProt Q7TQM4); assay: ACAT inhibiting activity (modified method of Tabas et al.; [1-14C] oleoyl-CoA, rat liver microsomal enzyme); type: biochemical; settings: 10 μM [1-14C] oleoyl-CoA, pH 7.4, 37° C., 15 minutes, read-out: IC50 (inhibitor concentration which reduces the activity of ACAT by 50%)
T1 construct: microsomal enzyme (10 mg/ml of protein) derived from rat liver tissue; from tissue; host or cells: rat liver microsomes
T1 sequence (Q7TQM4 1-524): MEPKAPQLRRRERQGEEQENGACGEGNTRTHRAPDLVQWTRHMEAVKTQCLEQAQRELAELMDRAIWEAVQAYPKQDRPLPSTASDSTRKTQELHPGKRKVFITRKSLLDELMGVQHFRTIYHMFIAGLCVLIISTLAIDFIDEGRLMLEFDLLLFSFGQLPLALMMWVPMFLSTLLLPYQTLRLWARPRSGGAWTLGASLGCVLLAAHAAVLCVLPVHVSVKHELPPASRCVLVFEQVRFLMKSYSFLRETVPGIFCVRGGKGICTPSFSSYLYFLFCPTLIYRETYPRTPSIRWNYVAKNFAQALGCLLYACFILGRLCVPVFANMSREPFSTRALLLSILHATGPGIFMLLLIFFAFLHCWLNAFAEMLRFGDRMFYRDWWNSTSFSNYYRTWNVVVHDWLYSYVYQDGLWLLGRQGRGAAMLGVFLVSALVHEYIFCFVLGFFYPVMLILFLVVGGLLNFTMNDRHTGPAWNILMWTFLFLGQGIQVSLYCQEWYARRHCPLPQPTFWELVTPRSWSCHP
Procedure: ACAT activity was determined as follows in accordance with a modified method of Tabas et al. described in J. Biol. Chem., 261, 3147-3154 (1986).
10 μl of sample, 4.0 μl of microsomal enzyme (10 mg/ml of protein) derived from rat liver tissue, 20 μl of analysis buffer(0.5M KH2 PO4, 10 mM dithiothreitol (DTT), pH 7.4), 15 μl of 40 mg/ml bovine serum albumin(essentially free of fatty acids), 2 μl of 20 mg/ml cholesterol and 41 μl of H2 O were mixed together and the resulting mixture was reacted at 37° C. for 15 minutes. 8 μl of [1-^14 C] oleoyl-CoA(0.05 μCi, final concentration of 10 μM) was added to the mixture and the reaction mixture was reacted at 37° C. for 15 minutes.
1 ml of isopropanol-heptane (4:1(v/v)) was added to the mixture to stop the reaction, 0.6 ml of heptane and 0.4 ml of said analysis buffer(5-fold diluted) were added thereto and the resulting mixture was centrifuged at 2,000 g for 2 minutes to obtain the supernatant.
5 ml of scintillation cocktail lipoluma (Lumac Co., U.S.A.) was added to 100 μl of the supernatant obtained above and enzyme activity was determined by detecting the amount of cholesteryl ester in the mixture based on the unit of count per minute (CPM) by using a liquid scintillation counter.
ACAT inhibiting activity was calculated in accordance with the following equation: [formula] wherein the blank composition had the same composition as the above sample but without enzyme and GERI-BP001 or its derivatives, and was reacted at 37° C.; and the control had the same composition as the above sample without GERI-BP001 or its derivatives and was reacted at 37° C. for 15 min.

[2] = tested on: female ICR mice; assay: Toxicity of GERI-BP001 in mice (subcutaneous injection); type: in vivo, mouse; settings: 500 mg/kg
Procedure: 5 female ICR mice weighing 23 g were administered via subcutaneous injection with 500 mg/kg of GERI-BP001.

[3] = tested on: rats; assay: Acute toxic effect in rats; type: in vivo, rat; settings: dose and route not stated
[4] = Solubility (physicochemical properties)

IC50 [1]: 140 to 150 µM
SMILES: CC(=O)O[C@H]1CC[C@]2(C)[C@H]3C(O)c4c(cc(-c5cccnc5)oc4=O)O[C@]3(C)CC[C@H]2C1(C)C (stereo partly shown) [GERI-BP001-A]

IC50 [1]: 70 to 80 µM
SMILES: CCC(=O)O[C@H]1CC[C@]2(C)[C@H]3Cc4c(cc(-c5cccnc5)oc4=O)O[C@]3(C)CC[C@H]2C1(C)C [GERI-BP001-B]

IC50 [1]: 110 to 120 µM
SMILES: CC(=O)O[C@H]1CC[C@]2(C)[C@H]3Cc4c(cc(-c5ccc[n+]([O-])c5)oc4=O)O[C@]3(C)CC[C@H]2C1(C)C [GERI-BP001-C]

SMILES: CC(=O)O[C@H]1CC[C@]2(C)[C@H]3Cc4c(cc(-c5cccnc5)oc4=O)O[C@]3(C)CC[C@H]2C1(C)C [GERI-BP001]
IC50 [1]: 70 to 80 µM | acute toxicity (judgement) ([2]; female ICR mice, subcutaneous injection): does not cause acute toxicity | mortality ([2]; female ICR mice, subcutaneous injection, until 4 days after administration): none of the mice was dead | activities of mice ([2]; mouse, in vivo, sc): increased | excited state ([2]; mouse, in vivo, sc): an excited state was induced | time after administration at which excited state was induced ([2]; mouse, in vivo, sc): about 15 minutes | time after administration at which symptoms disappeared ([2]; mouse, in vivo, sc): about 2 hours | acute toxic effect [3]: acute toxic effect was not found | Solubility ([4]; MeOH, CHCl3): soluble | Solubility ([4]; n-hexane, H2O): insoluble
